Experimental data published in ChEMBL document CHEMBL1133132, “Cell adhesion antagonists: synthesis and evaluation of a novel series of phenylalanine based inhibitors” (Bioorg Med Chem Lett, 2000).

Biological target: T1, Integrin alpha-4/beta-7 (Homo sapiens, UniProt P13612+P26010)
T1 sequence (P13612 whole entry): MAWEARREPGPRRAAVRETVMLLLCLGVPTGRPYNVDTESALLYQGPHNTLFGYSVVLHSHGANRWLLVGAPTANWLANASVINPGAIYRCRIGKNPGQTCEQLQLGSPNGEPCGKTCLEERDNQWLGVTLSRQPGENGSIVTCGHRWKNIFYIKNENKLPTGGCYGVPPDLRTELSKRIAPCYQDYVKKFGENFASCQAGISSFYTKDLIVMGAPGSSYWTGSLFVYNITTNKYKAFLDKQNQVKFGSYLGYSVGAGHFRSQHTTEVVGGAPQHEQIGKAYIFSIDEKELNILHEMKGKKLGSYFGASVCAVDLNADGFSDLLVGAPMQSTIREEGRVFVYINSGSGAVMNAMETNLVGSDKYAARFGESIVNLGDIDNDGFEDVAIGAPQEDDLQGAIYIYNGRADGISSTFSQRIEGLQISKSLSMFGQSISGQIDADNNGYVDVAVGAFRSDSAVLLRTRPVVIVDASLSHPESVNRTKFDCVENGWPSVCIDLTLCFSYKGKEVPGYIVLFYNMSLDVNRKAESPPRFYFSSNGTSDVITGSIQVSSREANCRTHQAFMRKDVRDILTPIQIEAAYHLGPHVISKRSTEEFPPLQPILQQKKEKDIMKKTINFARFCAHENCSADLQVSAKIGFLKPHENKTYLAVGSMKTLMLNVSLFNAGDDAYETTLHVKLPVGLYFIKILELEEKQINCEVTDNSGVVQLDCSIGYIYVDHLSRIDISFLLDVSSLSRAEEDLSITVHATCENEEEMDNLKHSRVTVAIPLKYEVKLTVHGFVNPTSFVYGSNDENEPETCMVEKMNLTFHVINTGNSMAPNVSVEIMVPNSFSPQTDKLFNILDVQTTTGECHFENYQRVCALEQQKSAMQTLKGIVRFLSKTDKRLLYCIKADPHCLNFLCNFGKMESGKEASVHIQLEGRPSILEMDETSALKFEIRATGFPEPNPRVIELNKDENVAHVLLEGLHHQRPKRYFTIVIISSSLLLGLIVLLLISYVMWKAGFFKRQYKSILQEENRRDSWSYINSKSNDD
T1 sequence (P26010 whole entry): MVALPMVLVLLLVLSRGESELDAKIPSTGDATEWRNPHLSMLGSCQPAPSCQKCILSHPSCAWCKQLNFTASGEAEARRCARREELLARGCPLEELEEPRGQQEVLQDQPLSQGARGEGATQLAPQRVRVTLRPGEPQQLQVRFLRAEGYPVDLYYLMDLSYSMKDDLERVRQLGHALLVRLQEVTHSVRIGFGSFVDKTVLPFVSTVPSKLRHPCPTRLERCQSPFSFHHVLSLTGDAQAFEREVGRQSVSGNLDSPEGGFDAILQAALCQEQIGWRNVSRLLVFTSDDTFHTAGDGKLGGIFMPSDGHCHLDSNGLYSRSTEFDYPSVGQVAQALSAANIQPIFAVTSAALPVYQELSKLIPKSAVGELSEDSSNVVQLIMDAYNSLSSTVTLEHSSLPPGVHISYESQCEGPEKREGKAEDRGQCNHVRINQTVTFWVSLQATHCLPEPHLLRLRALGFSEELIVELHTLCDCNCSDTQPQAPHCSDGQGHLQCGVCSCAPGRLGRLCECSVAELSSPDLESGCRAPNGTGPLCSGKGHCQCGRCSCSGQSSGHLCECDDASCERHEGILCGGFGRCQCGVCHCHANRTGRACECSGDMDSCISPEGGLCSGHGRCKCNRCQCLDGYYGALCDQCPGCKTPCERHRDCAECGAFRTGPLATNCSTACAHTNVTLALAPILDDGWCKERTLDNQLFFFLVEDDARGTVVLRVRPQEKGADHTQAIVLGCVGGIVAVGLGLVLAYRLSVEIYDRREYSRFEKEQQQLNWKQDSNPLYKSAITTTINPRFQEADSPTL
Test: Inhibition of alpha-4 beta7/MAdCAM mediated cell adhesion was evaluated using B-cell lymphoma RPMI 8866 cells; In active; call rule not given here
Type: functional, cell-based

IC50 | Compound
Not Active | CC(C)(C)OC(=O)[C@H](Cc1ccccc1)NCc1ccc([N+](=O)[O-])c(O)c1
Not Active | CC(C)CCNC(=O)[C@@H](Cc1ccccc1)NCc1cc([N+](=O)[O-])ccc1O

Biological target: T1, Integrin alpha-4/beta-7
Test: Inhibition of alpha-4 beta7/MAdCAM mediated cell adhesion was evaluated using B-cell lymphoma RPMI 8866 cells
Type: functional, cell-based

IC50 [µM] | Compound
85 | CC(C)(C)OC(=O)[C@H](Cc1ccccc1)NCc1ccc(O)cc1
176 | CC(C)(C)OC(=O)[C@H](Cc1ccccc1)NCc1cccc(F)c1
30 | CC(C)(C)OC(=O)[C@H](Cc1ccccc1)NCc1cc([N+](=O)[O-])ccc1O
7 | CC(C)CCOC(=O)[C@H](Cc1ccccc1)NCc1cc([N+](=O)[O-])ccc1O
82 | C=C(C)CCOC(=O)[C@H](Cc1ccccc1)NCc1cc([N+](=O)[O-])ccc1O
122 | COc1cccc(CN[C@@H](Cc2ccccc2)C(=O)OC(C)(C)C)c1
9 | CC(C)(C)COC(=O)[C@H](Cc1ccccc1)NCc1cc([N+](=O)[O-])ccc1O
54 | CC(C)(C)OC(=O)[C@H](Cc1ccccc1)NCc1cccc(O)c1
7 | O=C(OCc1ccccc1)[C@H](Cc1ccccc1)NCc1cc([N+](=O)[O-])ccc1O
121 | CC(C)(C)OC(=O)[C@H](Cc1ccccc1)NCc1ccc(F)cc1
6 | CC(C)CCNC(=O)[C@H](Cc1ccccc1)NCc1cc([N+](=O)[O-])ccc1O
100 | CC(C)(C)OC(=O)[C@H](Cc1ccccc1)NCc1ccccc1
117 | CC(C)(C)OC(=O)[C@H](Cc1ccccc1)NCc1ccccc1F
122 | COc1ccc(CN[C@@H](Cc2ccccc2)C(=O)OC(C)(C)C)cc1
60 | CC(C)(C)OC(=O)[C@H](Cc1ccccc1)NCc1ccccc1O

Compound | IC50 [µM]
COc1ccccc1CN[C@@H](Cc1ccccc1)C(=O)OC(C)(C)C | 50
